Test results reported in patent US8962671B2, “Amino-substituted 3-heteroaroylamino-propionic acid derivatives and their use as pharmaceuticals” (Sanofi, priority 2011, dated 2015).

Target: T1, Recombinant human cathepsin A (Homo sapiens, UniProt P10619)
T1 construct: Recombinant human cathepsin A (residues 29-480, with a C-terminal 10-His tag); 10-His (C); purchased R&D Systems 1049-SE
T1 sequence (P10619 29-326 limits assumed): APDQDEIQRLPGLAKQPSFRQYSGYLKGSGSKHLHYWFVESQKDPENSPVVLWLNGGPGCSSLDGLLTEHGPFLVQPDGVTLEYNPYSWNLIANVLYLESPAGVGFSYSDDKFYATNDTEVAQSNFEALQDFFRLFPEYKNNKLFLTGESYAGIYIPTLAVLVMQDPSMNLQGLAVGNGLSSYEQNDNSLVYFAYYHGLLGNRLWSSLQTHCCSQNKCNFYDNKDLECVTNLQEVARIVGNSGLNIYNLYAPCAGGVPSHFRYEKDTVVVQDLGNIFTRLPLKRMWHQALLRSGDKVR
T1 sequence (P10619 327-480 limits assumed): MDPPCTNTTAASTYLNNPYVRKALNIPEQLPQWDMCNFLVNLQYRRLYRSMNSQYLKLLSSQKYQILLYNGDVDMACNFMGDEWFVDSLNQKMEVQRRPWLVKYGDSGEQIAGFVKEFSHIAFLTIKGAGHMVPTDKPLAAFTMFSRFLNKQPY
Assay: Cathepsin A inhibitory activity
Type: biochemical
Settings: activated recombinant human cathepsin A 833 ng/ml, Bodipy FL-labeled bradykinin 2 μM, pH 5.5, 15 min room temperature
Protocol: a) Cathepsin a Inhibitory Activity
Recombinant human cathepsin A (residues 29-480, with a C-terminal 10-His tag; R&D Systems, #1049-SE) was proteolytically activated with recombinant human cathepsin L (R&D Systems, #952-CY). Briefly, cathepsin A was incubated at 10 μg/ml with cathepsin L at 1 μg/ml in activation buffer (25 mM 2-(morpholin-4-yl)-ethanesulfonic acid (MES), pH 6.0, containing 5 mM dithiothreitol (DTT)) for 15 min at 37° C. Cathepsin L activity was then stopped by the addition of the cysteine protease inhibitor E-64 (N-(trans-epoxysuccinyl)-L-leucine-4-guanidinobutylamide; Sigma-Aldrich, #E3132; dissolved in activation buffer/DMSO) to a final concentration of 10 μM.
The activated cathepsin A was diluted in assay buffer (25 mM MES, pH 5.5, containing 5 mM DTT) and mixed with the test compound (dissolved in assay buffer containing (v/v) 3% DMSO) or, in the control experiments, with the vehicle in a multiple assay plate. After incubation for 15 min at room temperature, as substrate then bradykinin carrying an N-Terminal®Bodipy FL (4,4-difluoro-5,7-dimethyl-4-bora-3a,4a-diaza-s-indacene-3-propionyl) label (JPT Peptide Technologies GmbH; dissolved in assay buffer) was added to the mixture. The final concentration of cathepsin A was 833 ng/ml and the final concentration of labeled bradykinin 2 μM. After incubation for 15 min at room temperature the reaction was stopped by the addition of stop buffer (130 mM 2-(4-(2-hydroxy-ethyl)-piperazin-1-yl)-ethanesulfonic acid, pH 7.4, containing (v/v) 0.013%®Triton X-100, 0.13% Coating Reagent 3 (Caliper Life Sciences), 6.5% DMSO and 20 μM ebelactone B (Sigma, #E0886)).
Uncleaved substrate and product were then separated by a microfluidic capillary electrophoresis on a LabChip® 3000 Drug Discovery System (12-Sipper-Chip; Caliper Life Sciences) and quantified by determination of the respective peak areas. Substrate turnover was calculated by dividing product peak area by the sum of substrate and product peak areas, and the enzyme activity and the inhibitory effect of the test compound thus quantified. From the percentage of inhibition of cathepsin A activity observed with the test compound at several concentrations, the inhibitory concentration IC50, i.e. the concentration which effects 50% inhibition of enzyme activity was, calculated.

Row | SMILES | IC50 [nM]
1 | Cc1ccccc1[C@H](CC(=O)O)NC(=O)c1cc(N2CCCCC2=O)n(-c2ccccc2F)n1 [Example 18, (S)-3-{[1-(2-Fluoro-phenyl)-5-(2-oxo-piperidin-1-yl)-1H-pyrazole-3-carbonyl]-amino}-3-o-tolyl-propionic acid] | 45.6
2 | O=C(O)C[C@H](NC(=O)c1cc2[nH]c3ccccc3n2n1)c1ccccc1F [Example 40, (S)-3-[(4H-Benzo[4,5]imidazo[1,2-b]pyrazole-2-carbonyl)-amino]-3-(2-fluoro-phenyl)-propionic acid] | 1170
3 | Cc1ccccc1[C@H](CC(=O)O)NC(=O)c1cc2[nH]c3ccccc3n2n1 [Example 38, (S)-3-[(4H-Benzo[4,5]imidazo[1,2-b]pyrazole-2-carbonyl)-amino]-3-o-tolyl-propionic acid] | 219
4 | O=C(O)CC(NC(=O)c1cc2[nH]c3ccccc3n2n1)c1cc(F)ccc1Cl (centres unmarked) [Example 32, 3-[(4H-Benzo[4,5]imidazo[1,2-b]pyrazole-2-carbonyl)-amino]-3-(2-chloro-5-fluoro-phenyl)-propionic acid] | 664
5 | Cc1ccccc1[C@H](CC(=O)O)NC(=O)c1cc(N2CCCS2(=O)=O)n(-c2ccccc2)n1 [Example 16, (S)-3-{[5-(1,1-Dioxo-1lambda6-isothiazolidin-2-yl)-1-phenyl-1H-pyrazole-3-carbonyl]-amino}-3-o-tolyl-propionic acid] | 17.9
6 | O=C(O)CC(NC(=O)c1cc2[nH]c3ccccc3n2n1)c1cccc(Oc2ccccc2)c1 (centres unmarked) [Example 26, 3-[(4H-Benzo[4,5]imidazo[1,2-b]pyrazole-2-carbonyl)-amino]-3-(3-phenoxy-phenyl)-propionic acid] | 2610
7 | O=C(O)C[C@H](NC(=O)c1cc(NC(=O)c2ccccc2)n(-c2ccccc2)n1)c1ccccc1F [Example 83, (S)-3-[(5-Benzoylamino-1-phenyl-1H-pyrazole-3-carbonyl)-amino]-3-(2-fluoro-phenyl)-propionic acid] | 147
8 | Cc1ccccc1[C@H](CC(=O)O)NC(=O)c1cc(N(C)CC(O)C(C)(C)C)n(-c2ccccc2)n1 (stereo partly drawn) [Example 65, (S)-3-({5-[(2-Hydroxy-3,3-dimethyl-butyl)-methyl-amino]-1-phenyl-1H-pyrazole-3-carbonyl}-amino)-3-o-tolyl-propionic acid] | 78.3
9 | Cc1ccccc1[C@H](CC(=O)O)NC(=O)c1cc(NC[C@@H](O)C(C)(C)C)n(-c2ccccc2)n1 (single isomer, unassigned) [Example 60] | 11.3
10 | Nc1cc(C(=O)NC(CC(=O)O)c2ccc(-c3ccc(F)cc3)cc2)nn1-c1ccccc1 (centres unmarked) [Example 2, 3-[(5-Amino-1-phenyl-1H-pyrazole-3-carbonyl)-amino]-3-(4′-fluoro-biphenyl-4-yl)-propionic acid] | 53.2
11 | Cc1ccccc1[C@H](CC(=O)O)NC(=O)c1cc(N2CCCC2=O)n(-c2ccccc2)n1 [Example 15, (S)-3-{[5-(2-Oxo-pyrrolidin-1-yl)-1-phenyl-1H-pyrazole-3-carbonyl]-amino}-3-o-tolyl-propionic acid] | 25.5
12 | Cc1ccc(C(=O)Nc2cc(C(=O)N[C@@H](CC(=O)O)c3ccccc3C)nn2-c2ccccc2)o1 [Example 61, (S)-3-({5-[(5-Methyl-furan-2-carbonyl)-amino]-1-phenyl-1H-pyrazole-3-carbonyl}-amino)-3-o-tolyl-propionic acid] | 62.6
13 | Nc1cc(C(=O)NC(CC(=O)O)c2ccc(-c3ccc(F)cc3)cc2)nn1-c1ccccc1F (centres unmarked) [Example 4, 3-{[5-Amino-1-(2-fluoro-phenyl)-1H-pyrazole-3-carbonyl]-amino}-3-(4′-fluoro-biphenyl-4-yl)-propionic acid] | 18.5
14 | Cc1ccccc1[C@H](CC(=O)O)NC(=O)c1nn(-c2ccccc2F)c(N)c1C#N [Example 5, (S)-3-{[5-Amino-4-cyano-1-(2-fluoro-phenyl)-1H-pyrazole-3-carbonyl]-amino}-3-o-tolyl-propionic acid] | 18.7
15 | Cc1ccccc1[C@H](CC(=O)O)NC(=O)c1cc(NCC(C)(O)C(C)(C)C)n(-c2ccccc2)n1 (stereo partly drawn) [Example 58, (S)-3-{[5-(2-Hydroxy-2.3,3-trimethyl-butylamino)-1-phenyl-1H-pyrazole-3-carbonyl]-amino}-3-o-tolyl-propionic acid] | 38.5
16 | Cc1ccccc1[C@H](CC(=O)O)NC(=O)c1cc(Nc2ccccn2)n(-c2ccccc2)n1 [Example 19, (S)-3-{[1-Phenyl-5-(pyridin-2-ylamino)-1H-pyrazole-3-carbonyl]-amino}-3-o-tolyl-propionic acid] | 49.7
17 | Cc1ccccc1[C@H](CC(=O)O)NC(=O)c1cc(N)n(-c2ccccc2F)n1 [Example 3, (S)-3-{[5-Amino-1-(2-fluoro-phenyl)-1H-pyrazole-3-carbonyl]-amino}-3-o-tolyl-propionic acid] | 13.8

Other lines, results leading:

Row | IC50 [nM] | SMILES
18 | 175 | Cc1ccc(C(=O)Nc2cc(C(=O)N[C@@H](CC(=O)O)c3ccc(Cl)cc3Cl)nn2-c2ccccc2)o1 [Example 62, (S)-3-(2,4-Dichloro-phenyl)-3-({5-[(5-methyl-furan-2-carbonyl)-amino]-1-phenyl-1H-pyrazole-3-carbonyl}-amino)-propionic acid]
19 | 2670 | O=C(O)CC(NC(=O)c1cc2[nH]c3ccccc3n2n1)c1cc(F)ccc1F (centres unmarked) [Example 33, 3-[(4H-Benzo[4,5]imidazo[1,2-b]pyrazole-2-carbonyl)-amino]-3-(2,5-difluoro-phenyl)-propionic acid]
20 | 20.4 | Nc1cc(C(=O)NC(CC(=O)O)c2ccc(-c3ccccn3)cc2)nn1-c1ccccc1F (centres unmarked) [Example 7, 3-{[5-Amino-1-(2-fluoro-phenyl)-1H-pyrazole-3-carbonyl]-amino}-3-(4-pyridin-2-yl-phenyl)-propionic acid]
21 | 64.5 | Cc1ccccc1[C@H](CC(=O)O)NC(=O)c1cc(N2CCCCC2=O)n(-c2ccccc2)n1 [Example 17, (S)-3-{[5-(2-Oxo-piperidin-1-yl)-1-phenyl-1H-pyrazole-3-carbonyl]-amino}-3-o-tolyl-propionic acid]
22 | 3280 | O=C(O)CC(NC(=O)c1cc2[nH]c3ccccc3n2n1)c1ccc(F)c(F)c1 (centres unmarked) [Example 20, 3-[(4H-Benzo[4,5]imidazo[1,2-b]pyrazole-2-carbonyl)-amino]-3-(3,4-difluoro-phenyl)-propionic acid]
23 | 940 | Cc1cccc([C@H](CC(=O)O)NC(=O)c2cc3[nH]c4ccccc4n3n2)c1 [Example 39, (S)-3-[(4H-Benzo[4,5]imidazo[1,2-b]pyrazole-2-carbonyl)-amino]-3-m-tolyl-propionic acid]
24 | 22000 | CC(C)C[C@@H](CC(=O)O)NC(=O)c1cc(NC(=O)c2ccccc2)n(-c2ccccc2)n1 [Example 76, (S)-3-[(5-Benzoylamino-1-phenyl-1H-pyrazole-3-carbonyl)-amino]-5-methyl-hexanoic acid]
25 | 386 | O=C(O)C[C@H](NC(=O)c1cc(NC(=O)c2ccccc2)n(-c2ccccc2)n1)c1ccccc1C(F)(F)F [Example 84, (S)-3-[(5-Benzoylamino-1-phenyl-1H-pyrazole-3-carbonyl)-amino]-3-(2-trifluoromethyl-phenyl)-propionic acid]
26 | 31.3 | CC(C)(C)C(=O)Nc1cc(C(=O)N[C@@H](CC(=O)O)c2ccccc2Cl)nn1-c1ccccc1 [Example 54, (S)-3-(2-Chloro-phenyl)-3-{[5-(2,2-dimethyl-propionylamino)-1-phenyl-1H-pyrazole-3-carbonyl]-amino}-propionic acid]
